{
  "source": "patent US9533957B2",
  "about": "“Tetrazines and method of synthezising the same” (The Regents of the University of California, priority 2012, dated 2017)",
  "key": {"[1]": {"tested_on": "SKBR3 cells", "assay": "Live-cell microscopy of metabolically incorporated cyclopropene sugar", "type": "cell-based, human", "details": "glycosylation inhibitors or 20 mM ManNAc as competitive substrate", "procedure": "SKBR3 and LS 174T cells were grown in cDMEM media supplemented with 10% fetal bovine serum, 1% L-glutamine, 1% penicillin/streptomycin. Cells were incubated in 5.0% carbon dioxide, 95% humidity at 37° C. Generally, cells were grown in T-75 tissue culture flasks, seeded at densities between 500,000 and 750,000 cells per flask (cells were quantified with the Life Technologies Countess automated cell counter). The cells were trypsinized with TrypLE Express and resuspended in cDMEM. Cells were allowed to incubate for two days before supplementing with Ac4ManNCyc (N-cyclopropeneacetylmannosamine) or Ac4GlcNAz (N-azidoacetylglucosamine). The cells were then analyzed via confocal microscopy and flow cytometry as described below.\n(§1) The SKBR3 and LS174T cells were incubated for two days in the presence of 100 μM of Ac4ManNCyc and/or 50 μM Ac4GlcNAz on a Lab-Tek chamber slide maintained in cDMEM medium. Treatment of cells with tunicamycin was done by preparing a 0.2 mg/mL stock in DMSO, which was diluted to a final working concentration of 1.2 μM tunicamycin in cDMEM (0.5% DMSO). Cells were washed 3× with phosphate-buffered saline (PBS) and incubated for 1 hour at 37° C. in 10 μM tetrazine-BODIPY TMR-X, 10 μM tetrazine-Alexa flour 488 and/or 15 μM dibenzocyclooctyne (DIBO)-Alexa Fluor 647 in cDMEM. The media was aspirated, and cells were washed twice with PBS before imaging. All photos were collected with an Olympus FV1000 confocal microscope using ImageJ 1.45j software package.\nIn order to determine if Ac4ManNCyc was incorporated effectively by cells, we incubated adherent human breast cancer (SKBR3) and colon cancer (LS174T) cell lines with 100 μM Ac4ManNCyc for 48 hours in cell media and serum. After incubation, cells were thoroughly washed and then reacted for 1 hour with 10 μM of fluorogenic Alexa Fluor 488 tetrazine. After a second wash, cells were imaged by confocal microscopy (Olympus FV1000). […] In order to ensure that the staining was due to glycan uptake of the probe, we also performed controls by exposing cells to 100 μM Ac4ManNCyc and inhibiting uptake by using glycosylation inhibitors (ie. tunicamycin and αBnGalNAc) or 20 mM of ManNAc as a competitive substrate.^[14] […] These experiments provide evidence that the staining patterns are reporting on glycosylation and uptake of the unnatural cyclopropene mannosamine. We also performed additional studies using flow cytometry to quantitate the relative uptake of sugars that corroborated the imaging data."}, "[2]": {"assay": "Storage stability of cyclopropene derivatives", "type": "physicochemical", "details": "for storage stability at −20° C.: stored at −20° C."}, "[3]": {"assay": "Reaction rate determination of cyclopropenes with tetrazine 3", "type": "physicochemical", "procedure": "A tetrazine 3 stock solution was prepared in DMSO and used to prepare tetrazine solutions at 0.6 mM final concentration in 12% v/v DMSO in ddH2O. Reactions were initiated with excess cyclopropene at final concentrations of 6.0, 8.0, and 10.0 mM. The disappearance of the tetrazine absorption peak at 520 nm was tracked over the reaction timeframe by measuring the absorption spectra using a NanoDrop 2000c spectrophotometer (Thermo Scientific). Samples were placed in a quartz cuvette with 10-mm pathlength and stirred at the maximum speed setting of the instrument. The temperature was uncontrolled by the instrument for room temperature (20° C.) measurements, and set and equilibrated at 37° C. for the higher temperature experiments.\nAbsorption spectra were measured manually over time. Absorption peak signal was taken as the average of measurements at 519-521 nm. Baseline signal was determined as the sloping line connecting the measured background levels preceding and following the tetrazine peak (410-430 nm and 590-610 nm, respectively). Final peak intensity value was taken as the signal above the baseline. Reaction rates were obtained by fitting the exponential decays of tetrazine peak absorption intensity as a pseudo first order reaction. Nonlinear data fits were performed with GraphPad Prism. Tetrazine reactions with cyclopropene carbamate 5 were carried out at 20 and 37° C. (data points and corresponding fitted curves at 20° C. in FIG. 51, 37° C. in FIG. 2c). Tetrazine reactions with cyclopropene carboxamide 2 were done at 37° C. ([…]. A representative comparison fit is shown for cyclopropenes 5 and 2 at 8.0 mM concentration reacting at 37° C. with 0.6 mM tetrazine."}, "[4]": {"tested_on": "27mer DNA template", "assay": "Template-driven ligation of tetrazine and cyclopropene oligonucleotide probes (fluorescence)", "type": "biochemical", "details": "for change in fluorescence in the absence of template: 1 μM probes, no template", "procedure": "Tetrazine and cyclopropene-modified oligonucleotide probes were ligated in the presence of a DNA or RNA template at a 1:1:1 ratio. Reactions were done in varying solution and temperature conditions, as indicated. Main hybridization buffer was 50 mM MOPS at pH 7.5, 250 mM NaCl. Ligation reactions with a mismatched DNA template were performed in 5 mM MgCl2 in standard 1× Tris-borate buffer (purchased as 10× UltraPure TBE from Invitrogen: 1.0 M Tris pH 8.4, 0.9 M Boric acid, 10 mM EDTA).\nLigation reactions were done in standard 96 fluorescence well plates using SpectraMax GeminiXS (Molecular Devices). Temperature was set by the instrument. Where indicated by standard deviations, experiments were performed multiple times. In order to avoid any secondary structure artifacts, DNA or RNA template with added tetrazine probe was first heated to 90° C. and crash-cooled on ice for 2 min right before the experiment. Each well was filled with a total of 100 μL reaction solution, and reactions were timed from the addition of the cyclopropene probe as the last step before starting the measurements. Wells were scanned every 20-60 s depending on the speed of the reactions by using 485 nm excitation and 538 nm emission with the cutoff set at 495 nm. Control reactions without template were done in parallel each time. Buffer-only well intensities were subtracted from the measured raw data before analysis. Data was analyzed using GraphPad Prism 6.0 by applying a nonlinear fit of a one-phase association to each curve where fluorescein signal during reaction was measured."}, "[5]": {"assay": "Oligonucleotide probe stability in buffer and cell media", "type": "physicochemical", "details": "over a 35-hour period"}, "[6]": {"tested_on": "27mer DNA template", "assay": "Melting temperatures of DNA template with probes and ligation products", "type": "physicochemical", "details": "hybridization target against 27mer template; 250 mM NaCl in buffer; 1 μM each oligonucleotide", "procedure": "Melting temperature of probes and ligation products in hybridization buffer (50 mM MOPS pH 7.5, 250 mM NaCl) were measured using a Beckman-Coulter DU 640 spectrophotometer equipped with a high performance temperature controller and micro auto six-cell holder. Samples at 1 μM concentration of each oligonucleotide were heated to 90° C. and slowly cooled to RT over 1-1.5 h before the measurements. Melting temperature values were obtained by cooling samples from 90° C. to 20° C. at the rate of 1° C./min and measuring at 1° C. increments with each read averaged over 1 s."}, "[7]": {"assay": "Reactivity of methyl-cyclopropene mini-tags with tetrazine, pseudo-first order", "type": "physicochemical", "details": "for rate of reaction with tetrazines (in words): aqueous solvent", "source_text": "(§2) After synthesizing the new cyclopropene mini-tags, we next sought to compare their reactivity with tetrazines through inverse Diels-Alder cycloaddition. Additionally, we also assayed their aqueous stability, since methyl-cyclopropene tags are envisioned to find application in bioorthogonal coupling reactions. In order to monitor kinetics, we reacted eight representative methyl-cyclopropenes with 1-methyl-4-aryl tetrazine under pseudo-first order conditions, and tracked the reaction of tetrazine by monitoring the disappearance of the characteristic absorption at 530 nm, similar to previous reports. For stability experiments, we incubated methyl-cyclopropenes in aqueous deuterated solutions (D2O/DMSO-d6=4:1) as indicated."}, "[8]": {"assay": "Aqueous stability of methyl-cyclopropenes by 1H NMR", "type": "physicochemical", "details": "for aqueous stability: aqueous deuterated solutions (D2O/DMSO-d6=4:1)", "source_text": "as §2"}, "[9]": {"tested_on": "LS174T human colon cancer cells", "assay": "Simultaneous imaging of two metabolically incorporated unnatural sugars and cross reactivity", "type": "cell-based", "procedure": "as §1\nFinally, we tested whether or not we could simultaneously image two different metabolically incorporated unnatural sugar derivatives, Ac4ManNCyc and tetraacetylated N-azidoacetylgalactosamine (Ac4GalNAz). […] Recent experimental work has shown that alkenes and azides can be mutually orthogonal to each other, even when using highly strained trans-cyclooctenes. Additionally, the Houk group has calculated that methyl-cyclopropene handles, such as those we have previously developed, should be mutually orthogonal to azide cyclooctyne reactions. We incubated LS174T human colon cancer cells with 100 μM Ac4ManNCyc and Ac4GalNAz for 2 days. After incubation, we sequentially stained the cells with 10 μM tetrazine-Alexa Fluor 488 and 15 μM dibenzocyclooctyne (DIBO) 647. […] Similar results were obtained with the SKBR3 cell line. […] The ability to simultaneously label two different metabolically incorporated molecules using live-cell compatible inverse-Diels-Alder and Huisgen reactions expands the capabilities of bioorthogonal metabolic imaging."}},
  "data": [
    {"compound": "CC(=O)N[C@H]1[C@@H](OCc2ccccc2)O[C@H](CO)[C@H](O)[C@@H]1O", "note": "[αBnGalNAc]", "values": [
      {"measurement": "effect on staining of cells exposed to 100 μM Ac4ManNCyc", "setting": "[1]", "result": "severely diminished staining"}
    ]},
    {"compound": "CC1=CC1C(N)=O", "note": "(stereo not drawn) [cyclopropene 2, 2-methylcycloprop-2-enecarboxamide]", "values": [
      {"measurement": "long-term storage stability", "setting": "[2]", "result": "could be stored for extended periods of time without degradation"},
      {"measurement": "second order rate constant", "setting": "[3]; 37° C., water/DMSO (12% DMSO by volume)", "result": "0.137 ± 0.004", "unit": "M⁻¹ s⁻¹"}
    ]},
    {"compound": "CC(=O)N[C@H]1[C@@H](O)[C@H](O)[C@@H](CO)O[C@@H]1O", "note": "[ManNAc]", "values": [
      {"measurement": "effect on staining of cells exposed to 100 μM Ac4ManNCyc", "setting": "[1]", "result": "lowered fluorescent signal"}
    ]},
    {"compound": "13merFl5′tet: 5′-tetrazine-/5AmMC6//iFluorT/CG ATG GCG TCA A-3′ (SEQ ID NO:4) (DNA CGATGGCGTCAA; 5' tetrazine, amino C6 linker, internal fluorescein-dT, chemistry not fully specified)", "values": [
      {"measurement": "change in fluorescence in the absence of template", "setting": "[4]; listed as 13merF15′tet", "result": "no appreciable change in fluorescence over time"},
      {"measurement": "change in fluorescence in the absence of template", "setting": "[4]; listed as Fluorogenic tetrazine probe", "result": "does not turn on"},
      {"measurement": "increase in the peak emission intensity", "setting": "[4]; reaction with the cyclopropene probe in the presence of a DNA template", "result": 9.3, "unit": "fold"},
      {"measurement": "autohydrolytic turn-on", "setting": "[5]", "result": "minimal"},
      {"measurement": "Melting T", "setting": "[6]", "result": 57.4, "unit": "°C"}
    ]},
    {"compound": "cyclopropene carbamate", "values": [
      {"measurement": "rates of cycloaddition with unsubstituted tetrazine relative to methyl-tetrazine", "setting": "[7]; previous studies with faster reacting unsubstituted tetrazine", "result": 36, "unit": "fold faster"},
      {"measurement": "rate of cycloaddition relative to cyclopropene amide 1", "setting": "[3]; reacting with tetrazine 3 in aqueous solution", "result": "approximately one-hundred times faster"}
    ]},
    {"compound": "CC1=C([Si](C)(C)C)C1C=O", "note": "(stereo not drawn) [cyclopropen aldehyde 11]", "values": [
      {"measurement": "storage stability at −20° C.", "setting": "[2]", "result": "slowly degrading over 48 hours"}
    ]},
    {"compound": "CC1=CC1/C=C/CO", "note": "(stereo not drawn) [Compound 16]", "values": [
      {"measurement": "rate of reaction with tetrazines (in words)", "setting": "[7]", "result": "greatly increased the reaction rate"},
      {"measurement": "storage stability at −20° C.", "setting": "[2]", "result": "not stable to long-term storage"},
      {"measurement": "time to complete decomposition", "setting": "[8]; D2O/DMSO-d6=4:1 at room temperature", "result": 10.5, "unit": "h"},
      {"measurement": "aqueous stability", "setting": "[8]", "result": "unstable in aqueous solution"}
    ]},
    {"compound": "CC(=O)OC[C@H]1OC(OC(C)=O)[C@H](NC(=O)CN=[N+]=[N-])[C@@H](OC(C)=O)[C@H]1OC(C)=O", "note": "(stereo partly drawn) [Ac4GalNAz, tetraacetylated N-azidoacetylgalactosamine, reference compound]", "values": [
      {"measurement": "cell surface staining after co-incubation of both sugars", "setting": "[9]; 100 μM, 2 days, stained with 10 μM tetrazine-Alexa Fluor 488 and 15 μM DIBO 647", "result": "cell surface staining in both the fluorescent channels"},
      {"measurement": "cross reactivity: surface staining with tetrazine-Alexa Fluor 488", "setting": "[9]; cells incubated with only this sugar", "result": "minimal surface staining"}
    ]},
    {"compound": "CC1=CC1/C=C/C(=O)NCCO", "note": "(stereo not drawn) [Compound 14]", "values": [
      {"measurement": "rate of reaction with tetrazines (in words)", "setting": "[7]", "result": "significantly lowered the rate of reaction with tetrazines"},
      {"measurement": "aqueous stability", "setting": "[8]", "result": "greatly improved stability"}
    ]},
    {"compound": "CC1=CC1/C=C/C(=O)O", "note": "(stereo not drawn) [Compound 13]", "values": [
      {"measurement": "aqueous stability", "setting": "[8]", "result": "unstable to incubation in aqueous solvent at 37 °C"}
    ]},
    {"compound": "tunicamycin", "values": [
      {"measurement": "effect on staining of cells exposed to 100 μM Ac4ManNCyc", "setting": "[1]", "result": "severely diminished staining"}
    ]},
    {"compound": "CC1=C([Si](C)(C)C)C1CN=[N+]=[N-]", "note": "(stereo not drawn) [cyclopropene azide 2]", "values": [
      {"measurement": "long-term storage stability", "setting": "[2]", "result": "not amenable long-term storage"}
    ]},
    {"compound": "CC1=C([Si](C)(C)C)C1CN", "note": "(stereo not drawn) [cyclopropene amine 3]", "values": [
      {"measurement": "long-term storage stability", "setting": "[2]", "result": "not amenable long-term storage"}
    ]}
  ]
}
